According to publication PMC10931659, “Structural Characterization and Functional Analysis of Mevalonate Kinase from Tribolium castaneum (Red Flour Beetle)” (International Journal of Molecular Sciences, 2024):

T1: TcMevK (Tribolium castaneum, UniProt D2A4R0, S217A)
T1 construct: gene AUGUSTUS-3.0.2_15408; N-terminal His6 tag (pET28a-derived vector), expressed in E. coli BL21(DE3), Ni-chelating and Superdex 200 purified
T1 sequence (D2A4R0 1-396 S217A): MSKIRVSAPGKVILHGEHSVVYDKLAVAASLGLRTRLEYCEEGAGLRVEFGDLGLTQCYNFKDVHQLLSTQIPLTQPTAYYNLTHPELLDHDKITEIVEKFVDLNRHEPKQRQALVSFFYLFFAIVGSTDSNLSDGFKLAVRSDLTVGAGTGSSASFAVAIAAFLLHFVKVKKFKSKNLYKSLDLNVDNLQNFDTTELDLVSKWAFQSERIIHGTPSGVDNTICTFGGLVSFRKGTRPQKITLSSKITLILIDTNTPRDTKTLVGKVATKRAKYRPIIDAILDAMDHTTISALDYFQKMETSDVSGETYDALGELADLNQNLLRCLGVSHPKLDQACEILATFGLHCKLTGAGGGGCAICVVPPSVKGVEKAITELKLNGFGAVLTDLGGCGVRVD

T2: TcMevK (Tribolium castaneum, UniProt D2A4R0, D220A)
T2 construct: gene AUGUSTUS-3.0.2_15408; N-terminal His6 tag (pET28a-derived vector), expressed in E. coli BL21(DE3), Ni-chelating and Superdex 200 purified
T2 sequence (D2A4R0 1-396 D220A): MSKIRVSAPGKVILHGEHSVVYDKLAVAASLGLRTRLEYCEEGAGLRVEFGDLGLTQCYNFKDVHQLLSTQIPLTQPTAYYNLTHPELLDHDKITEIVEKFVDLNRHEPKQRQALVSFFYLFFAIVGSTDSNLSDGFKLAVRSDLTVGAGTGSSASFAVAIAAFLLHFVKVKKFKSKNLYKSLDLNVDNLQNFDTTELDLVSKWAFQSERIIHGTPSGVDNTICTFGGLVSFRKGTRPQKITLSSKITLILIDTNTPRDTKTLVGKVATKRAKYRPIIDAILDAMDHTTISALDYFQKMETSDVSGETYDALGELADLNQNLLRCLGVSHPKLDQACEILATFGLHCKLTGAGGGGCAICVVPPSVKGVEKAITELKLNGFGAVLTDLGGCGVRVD

T3: TcMevK (Tribolium castaneum, UniProt D2A4R0, V264A)
T3 construct: gene AUGUSTUS-3.0.2_15408; N-terminal His6 tag (pET28a-derived vector), expressed in E. coli BL21(DE3), Ni-chelating and Superdex 200 purified
T3 sequence (D2A4R0 1-396 V264A): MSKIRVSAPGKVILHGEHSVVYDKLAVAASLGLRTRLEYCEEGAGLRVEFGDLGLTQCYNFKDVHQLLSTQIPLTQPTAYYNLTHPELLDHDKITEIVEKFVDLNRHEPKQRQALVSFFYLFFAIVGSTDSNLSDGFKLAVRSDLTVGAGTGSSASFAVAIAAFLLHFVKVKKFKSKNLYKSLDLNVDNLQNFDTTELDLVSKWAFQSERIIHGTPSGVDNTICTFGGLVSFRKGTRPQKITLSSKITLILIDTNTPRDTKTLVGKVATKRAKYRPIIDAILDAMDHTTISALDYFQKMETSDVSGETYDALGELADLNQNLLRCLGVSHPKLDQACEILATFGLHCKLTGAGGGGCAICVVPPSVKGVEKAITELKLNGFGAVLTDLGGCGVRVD

T4: TcMevK (Tribolium castaneum, UniProt D2A4R0, V21A)
T4 construct: gene AUGUSTUS-3.0.2_15408; N-terminal His6 tag (pET28a-derived vector), expressed in E. coli BL21(DE3), Ni-chelating and Superdex 200 purified
T4 sequence (D2A4R0 1-396 V21A): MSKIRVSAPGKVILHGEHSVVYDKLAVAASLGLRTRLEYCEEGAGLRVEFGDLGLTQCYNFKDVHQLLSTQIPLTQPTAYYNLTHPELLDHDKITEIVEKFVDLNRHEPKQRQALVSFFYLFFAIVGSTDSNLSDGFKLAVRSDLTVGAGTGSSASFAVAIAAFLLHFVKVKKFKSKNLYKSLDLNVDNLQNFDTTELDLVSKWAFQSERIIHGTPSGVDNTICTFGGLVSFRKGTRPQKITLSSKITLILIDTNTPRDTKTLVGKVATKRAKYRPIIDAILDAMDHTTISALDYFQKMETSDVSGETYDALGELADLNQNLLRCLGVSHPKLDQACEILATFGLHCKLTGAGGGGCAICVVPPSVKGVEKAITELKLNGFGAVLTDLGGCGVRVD

T5: TcMevK (Tribolium castaneum, UniProt D2A4R0)
T5 construct: gene AUGUSTUS-3.0.2_15408; N-terminal His6 tag (pET28a-derived vector), expressed in E. coli BL21(DE3), Ni-chelating and Superdex 200 purified
T5 sequence (D2A4R0 1-396): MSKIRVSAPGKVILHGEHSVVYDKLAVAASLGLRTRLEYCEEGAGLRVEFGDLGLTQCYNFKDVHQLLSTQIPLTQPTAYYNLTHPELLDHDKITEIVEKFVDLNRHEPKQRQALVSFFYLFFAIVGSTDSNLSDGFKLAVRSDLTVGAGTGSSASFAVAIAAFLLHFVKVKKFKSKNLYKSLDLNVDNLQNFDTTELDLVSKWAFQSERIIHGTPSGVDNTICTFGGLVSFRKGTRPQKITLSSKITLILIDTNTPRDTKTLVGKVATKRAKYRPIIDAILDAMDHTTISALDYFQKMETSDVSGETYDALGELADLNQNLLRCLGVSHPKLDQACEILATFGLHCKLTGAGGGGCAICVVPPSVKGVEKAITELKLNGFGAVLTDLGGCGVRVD

T6: TcMevK (Tribolium castaneum, UniProt D2A4R0, K234A)
T6 construct: gene AUGUSTUS-3.0.2_15408; N-terminal His6 tag (pET28a-derived vector), expressed in E. coli BL21(DE3), Ni-chelating and Superdex 200 purified
T6 sequence (D2A4R0 1-396 K234A): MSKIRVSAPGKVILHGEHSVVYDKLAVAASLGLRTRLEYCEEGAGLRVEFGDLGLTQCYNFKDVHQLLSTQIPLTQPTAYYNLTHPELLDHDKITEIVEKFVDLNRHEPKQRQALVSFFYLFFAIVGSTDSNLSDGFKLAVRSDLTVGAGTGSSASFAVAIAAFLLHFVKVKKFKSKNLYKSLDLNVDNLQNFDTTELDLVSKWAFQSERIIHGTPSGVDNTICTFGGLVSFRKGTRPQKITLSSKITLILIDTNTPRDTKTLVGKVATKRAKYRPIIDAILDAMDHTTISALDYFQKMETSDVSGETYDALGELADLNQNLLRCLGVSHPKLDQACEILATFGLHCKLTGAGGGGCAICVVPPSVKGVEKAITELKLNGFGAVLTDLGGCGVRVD

T7: TcMevK (Tribolium castaneum, UniProt D2A4R0, K11A)
T7 construct: gene AUGUSTUS-3.0.2_15408; N-terminal His6 tag (pET28a-derived vector), expressed in E. coli BL21(DE3), Ni-chelating and Superdex 200 purified
T7 sequence (D2A4R0 1-396 K11A): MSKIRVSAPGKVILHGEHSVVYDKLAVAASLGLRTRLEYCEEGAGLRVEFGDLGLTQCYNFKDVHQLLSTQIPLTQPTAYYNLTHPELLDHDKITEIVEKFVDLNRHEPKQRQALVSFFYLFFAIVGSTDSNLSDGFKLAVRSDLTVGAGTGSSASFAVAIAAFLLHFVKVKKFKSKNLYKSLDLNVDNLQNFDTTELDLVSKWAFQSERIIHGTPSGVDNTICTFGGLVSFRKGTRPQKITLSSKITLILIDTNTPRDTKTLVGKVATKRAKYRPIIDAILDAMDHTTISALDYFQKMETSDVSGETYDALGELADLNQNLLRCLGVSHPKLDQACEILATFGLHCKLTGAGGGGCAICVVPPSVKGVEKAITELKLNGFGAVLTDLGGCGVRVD

B1: TcMevK (Tribolium castaneum) (protein)
chain: MSKIRVSAPGKVILHGEHSVVYDKLAVAASLGLRTRLEYCEEGAGLRVEFGDLGLTQCYNFKDVHQLLSTQIPLTQPTAYYNLTHPELLDHDKITEIVEKFVDLNRHEPKQRQALVSFFYLFFAIVGSTDSNLSDGFKLAVRSDLTVGAGTGSSASFAVAIAAFLLHFVKVKKFKSKNLYKSLDLNVDNLQNFDTTELDLVSKWAFQSERIIHGTPSGVDNTICTFGGLVSFRKGTRPQKITLSSKITLILIDTNTPRDTKTLVGKVATKRAKYRPIIDAILDAMDHTTISALDYFQKMETSDVSGETYDALGELADLNQNLLRCLGVSHPKLDQACEILATFGLHCKLTGAGGGGCAICVVPPSVKGVEKAITELKLNGFGAVLTDLGGCGVRVD
notes: N-terminal His6 tag (pET28a-derived vector), expressed in E. coli BL21(DE3), Ni-chelating and Superdex 200 purified

How the values were obtained:
TcMevK [1] = biological target: T1, TcMevK; test: intrinsic fluorescence quenching, excitation […] nm; assay type: binding; conditions: read-out: KD Value for Mev
TcMevK [2] = biological target: T2, TcMevK; test: intrinsic fluorescence quenching, excitation […] nm; assay type: binding; conditions: read-out: KD Value for Mev
TcMevK [3] = biological target: T3, TcMevK; test: intrinsic fluorescence quenching, excitation […] nm; assay type: binding; conditions: read-out: KD Value for Mev
TcMevK [4] = biological target: T4, TcMevK; test: intrinsic fluorescence quenching, excitation […] nm; assay type: binding; conditions: read-out: KD Value for Mev
TcMevK [5] = biological target: T5, TcMevK; test: intrinsic fluorescence quenching, excitation […] nm; assay type: binding; conditions: read-out: KD Value for Mev
TcMevK [6] = biological target: T6, TcMevK; test: intrinsic fluorescence quenching, excitation […] nm; assay type: binding; conditions: read-out: KD Value for Mev
TcMevK [7] = biological target: T7, TcMevK; test: intrinsic fluorescence quenching, excitation […] nm; assay type: binding; conditions: read-out: KD Value for Mev
purified protein = substrate: C[C@@](O)(CCO)CC(=O)O; test: purified protein; assay type: biochemical, Tribolium castaneum; conditions: 5 mM ATP, 16 mM MgCl2, 75 mM KCl; Mev 0–500 μM; pH and temperature not stated for this assay

Row | Molecule | Kd (TcMevK [1]) | Kd (TcMevK [2]) | Kd (TcMevK [3]) | Kd (TcMevK [4]) | Kd (TcMevK [5]) | Kd (TcMevK [6]) | Kd (TcMevK [7]) | Km (purified protein)
1 | C[C@@](O)(CCO)CC(=O)O [mevalonate] | 70.2 ± 1.06 µM | 47.5 ± 2.17 µM | 57.1 ± 1.83 µM | 51.7 ± 2.16 µM | 30 ± 0.93 µM | 89.5 ± 2.45 µM | 75.8 ± 0.84 µM | –
2 | B1 | – | – | – | – | – | – | – | 32.71 ± 1.09 µM
